Data taken from patent US20150023904A1, “NEW APPLICATION OF PVP-I” (priority 2013, published 2015).

Test system: patients suffering premature ejaculation
Test: IELT before and after treatment in patients suffering premature ejaculation (Groups a, b, c)
Assay type: in vivo, human
From the text: 31 patients (27±5 years old) suffering premature ejaculation for 0.5 to 2 years who have abandoned other therapies for at least 1 month before participating in this experiment. With normal sexual desire, and without drug abuse experience, suspected drug use, or contact with radioactive materials, all these patients are composed of 10 with circumcision, 1 with renal insufficiency, 2 with unsatisfactory sexual life after marriage, and 1 with weak erection.
Taking intravaginal ejaculatin latency time (IELT) as the experimental parameter, if the time after insertion into the vagina is less than 1 minute, deem it as 1 minute. Take IELT for 3 times before and after the treatment, then calculate the mean value.
The experiment was performed by observation of three groups: a, b and c, wherein,
IELT shall be calculated after 1 month of drug taking respectively.
All the data were analyzed statistically with statistical software SPSS 18.0, and for single variables, t was inspected by taking the inspection standard α=0.05, with the inspection results as below: codes a, b and c represent different groups, the data following denote treatment time, 1 signifies IELT before treatment, 2 represents IELT after treatment and N as the number of patients.

Compound: CN[C@H]1CC[C@@H](c2ccc(Cl)c(Cl)c2)c2ccccc21 [sertraline]
- number of patients with prolonged IELT after treatment (Group a N=4, Group b N=13, Group c N=14, from scatter plots FIG. 2-4): 4
- IELT after treatment, mean value (after treatment, IELT taken 3 times and averaged, calculated after 1 month of drug taking, IELT less than 1 minute deemed 1 minute): 3.75 min
- IELT before treatment, mean value (before treatment (baseline of the same group), IELT taken 3 times and averaged): 1.25 min
- patients with side effects or adverse reaction (lethargy, dysphoria, bruxism and nausea, disappeared 2 to 3 days after drug withdrawal): 5
